Counter-ions that a name gives are not always drawn.
Experiment: Comparative stability, Formulation 2 (based on Alkeran)
Format: physicochemical
Settings: Formulation 2, 25° C.
Protocol: The stability of Compound (1c) either as the HCl salt or as the free base was compared to the stability of melphalan HCl and/or bendamustine HCl in various pharmaceutical formulations and at different concentrations and at temperatures of 0° C. or 25° C.
The stability of the compounds in the pharmaceutical formulations was determined at concentrations within the range from 0.4 mg/mL to 0.5 mg/mL, from 0.9 mg/mL to 1.1 mg/mL, and from 1.8 mg/mL to 2.1 mg/mL.
The amount of the active pharmaceutical ingredient (API) (Compound (1c), melphalan or bendamustine) in the pharmaceutical formulations at different times during storage was determined using HPLC/UV as described in detail for Example 4 and Example 5.
Alkeran® is an injectable formulation of melphalan-HCl approved by the FDA. Alkeran® for injection is supplied as a sterile, nonpyrogenic, freeze-dried powder. Each vial contains melphalan hydrochloride equivalent to 50 mg melphalan and 20 mg povidone (polyvinylpyrrolidinone, PVP). The solid powder is recons trued in a sterile diluent containing 0.2 g of sodium citrate, 6.0 mL of propylene glycol, and 0.52 mL of ethanol (96%) and Water for Injection for a total of 10 mL. This provides a nominal 5 mg/mL solution of melphalan (admixture). The dose to be administered is immediately diluted in 0.9% sodium chloride injection, USP, to a concentration not greater than 0.45 mg/mL. Alkeran® for injection is administered intravenously.
A stock solution was prepared by dissolving 68.8 mg (0.206 mmol) of Compound (1c) (free base) and 25.0 mg of Plasdone® C-12 (Povidone; Ashland, 830796) in about 20.0 mL of a mixture of acetonitrile/water (1:1, v/v) with vortexing in clean graduated glass cylinder (25 mL). A solution of 0.407 mL of 0.5072 M aq. HCl (0.206 mmol, 1.0 eq.; Fluka, 318957) was added with gentle vortexing, and the resulting clear solution was further diluted to 25.0 mL with a mixture of acetonitrile/water (1:1, v/v) with gentle vortexing to afford a stock solution of Compound (1c) as a mono-HCl salt of a concentration 2.75 mg/mL and a Plasdone® concentration of 1.0 mg/mL. This solution was filtered through a 0.45 μm nylon syringe filter into a clean 50 mL Erlenmeyer flask. Aliquots of 2.0 mL (2× 1.0 mL; 2× 2.75 mg) of this stock solution were rapidly pipetted into clean 12 mL scintillation vials. The aliquots were frozen at −78° C. (dry ice/acetone bath) and lyophilized at about 100 mTorr for about 16 hours to provide test vials each containing 6.1 mg (0.0165 mmol) of Compound (1c) mono-hydrochloride salt (mono-HCl salt) (corresponding to 5.5 mg of Compound (1c), free base, as a colorless powdery solid.
A stock solution was prepared by dissolving 62.5 mg (0.205 mmol) of melphalan (free base; SigmaAldrich, M2011) and 25.0 mg of Plasdone® C-12 (Povidone; Ashland, 830796) in about 20.0 mL of a mixture of acetonitrile/water (1:1, v/v) with vortexing in clean graduated glass cylinder (25 mL). A solution of 0.404 mL of 0.5072 M aq. HCl (0.205 mmol, 1.0 eq.; Fluka, 318957) was added with gentle vortexing, and the resulting clear solution was further diluted to 25.0 mL with a mixture of acetonitrile/water (1:1, v/v) with gentle vortexing to afford a stock solution of melphalan as a mono-HCl salt of a concentration 2.50 mg/mL and a Plasdone® concentration of 1.0 mg/mL. This solution was filtered through a 0.45 μm nylon syringe filter into a clean 50 mL Erlenmeyer flask. Aliquots of 2.0 mL (2× 1.0 mL; 2×2.50 mg) of this stock solution were rapidly pipetted into clean 12 mL scintillation vials. The aliquots were frozen at −78° C. (dry ice/acetone bath) and lyophilized at about 100 mTorr for about 16 hours to provide test vials each containing 5.6 mg (0.0164 mmol) of melphalan mono-hydrochloride salt (mono-HCl salt) (corresponding to 5.0 mg of melphalan as a free base) as a colorless powdery solid. […]

[1] = pH 5.5-5.8, 0.5 hours, 0.4-0.5 mg/mL
[2] = pH 5.5-5.8, 0.5 hours, 0.9-1.1 mg/mL
[3] = pH 5.5-5.8, 0.5 hours, 1.8-2.1 mg/mL
[4] = pH 5.5-5.8, 2.0 hours, 0.4-0.5 mg/mL
[5] = pH 5.5-5.8, 2.0 hours, 0.9-1.1 mg/mL
[6] = pH 5.5-5.8, 2.0 hours, 1.8-2.1 mg/mL

SMILES	% API [1] [%]	% API [2] [%]	% API [3] [%]	% API [4] [%]	% API [5] [%]	% API [6] [%]
Cc1ccc(N(CCCl)CCCl)cc1C[C@H](N)CC(=O)O [Compound (1c)•HCl, (S)-3-amino-4-(5-(bis(2-chloroethyl)amino)-2-methylphenyl) butanoic acid mono hydrochloride salt]	91	89	89	72	60	62
Cl.N[C@@H](Cc1ccc(N(CCCl)CCCl)cc1)C(=O)O [Melphalan•HCl, 4-[bis(2-chloroethyl)amino]-L-phenylalanine hydrochloride, reference compound]	95	91	91	84	71	75
